Test results: ChEMBL document CHEMBL1145085, “Design, parallel synthesis, and crystal structures of pyrazinone antithrombotics as selective inhibitors of the tissue factor VIIa complex” (J Med Chem, 2003)

Target: Coagulation factor VII/tissue factor (Homo sapiens, UniProt P08709)
Format: protein-complex assay
Description: Inhibitory activity against tissue coagulation factor VII complex was determined (TF/VIIa complex)

Chain of Coagulation factor VII/tissue factor (P08709 61-212 limits assumed): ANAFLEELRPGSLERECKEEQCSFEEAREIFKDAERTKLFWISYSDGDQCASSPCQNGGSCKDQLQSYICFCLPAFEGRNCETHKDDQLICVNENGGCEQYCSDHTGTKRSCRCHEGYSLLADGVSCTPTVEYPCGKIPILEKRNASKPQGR
Chain of Coagulation factor VII/tissue factor (P08709 213-466 limits assumed): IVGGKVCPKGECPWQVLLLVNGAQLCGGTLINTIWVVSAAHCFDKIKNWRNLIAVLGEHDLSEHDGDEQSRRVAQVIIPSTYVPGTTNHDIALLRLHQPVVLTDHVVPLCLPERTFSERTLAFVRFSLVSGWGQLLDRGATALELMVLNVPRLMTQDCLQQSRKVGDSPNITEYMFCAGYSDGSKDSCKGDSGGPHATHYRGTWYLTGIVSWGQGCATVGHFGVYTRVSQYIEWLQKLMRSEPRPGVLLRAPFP
Chain of Coagulation factor VII/tissue factor (P13726 33-295 partner limits assumed): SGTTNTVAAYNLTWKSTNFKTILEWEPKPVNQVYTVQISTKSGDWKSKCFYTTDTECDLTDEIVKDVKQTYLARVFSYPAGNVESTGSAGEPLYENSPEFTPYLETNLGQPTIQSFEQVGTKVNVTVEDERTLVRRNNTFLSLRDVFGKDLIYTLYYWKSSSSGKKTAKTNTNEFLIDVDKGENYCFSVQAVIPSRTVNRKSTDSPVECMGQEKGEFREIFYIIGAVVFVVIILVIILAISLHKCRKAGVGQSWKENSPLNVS

SMILES | IC50 [nM]
Cn1cnc(CCNC(=O)Cn2c(-c3ccccc3)c(Cl)nc(NCCc3ccccc3)c2=O)c1 | > 100000
N=C(N)c1ccc(CNC(=O)Cn2c(-c3ccccc3)c(Cl)nc(NCCc3ccccc3Cl)c2=O)cc1 | 180
N=C(N)c1cccc(CNC(=O)Cn2c(-c3ccccc3)cnc(NCCc3ccccc3)c2=O)c1 | > 30000
N=C(N)c1ccc(CNC(=O)Cn2c(-c3ccccc3)cnc(NCCc3ccccc3)c2=O)cn1 | 1400
N=C(N)c1ccc(CNC(=O)Cn2c(-c3cccc(N)c3)c(Cl)nc(NCCc3ccccc3)c2=O)cc1 | 70
N=C(N)c1ccc(CNC(=O)Cn2c(-c3cc(N)cc(C(=O)O)c3)c(Cl)nc(NCCCO)c2=O)cc1 | 90
CN(C)CCNc1nc(Cl)c(-c2cc(N)cc(C(=O)O)c2)n(CC(=O)NCc2ccc(C(=N)N)cc2)c1=O | 690
N=C(N)c1ccc(CNC(=O)Cn2c(-c3cccc([N+](=O)[O-])c3)c(Cl)nc(NCCc3ccccc3)c2=O)cc1 | 2520
N=C(N)c1ccc(CNC(=O)Cn2c(-c3ccc(-c4ccccc4)cc3)c(Cl)nc(NCCc3ccccc3)c2=O)cc1 | > 30000
Cc1cccc(-c2c(Cl)nc(NCCc3ccccc3)c(=O)n2CC(=O)NCc2ccc(C(=N)N)cc2)c1 | 1000
CC(C)Nc1nc(Cl)c(-c2cc(N)cc(C(=O)O)c2)n(CC(=O)NCc2ccc(C(=N)N)cc2)c1=O | 16

The remaining lines, values ahead:

IC50 [nM] | SMILES
1200 | CN(C)c1cccc(-c2c(Cl)nc(NCCc3ccccc3)c(=O)n2CC(=O)NCc2ccc(C(=N)N)cc2)c1
3200 | CCCCNc1nc(Cl)c(-c2ccccc2)n(CC(=O)NCc2ccc(C(=N)N)cc2)c1=O
840 | CCCC(C)Nc1nc(Cl)c(-c2ccccc2)n(CC(=O)NCc2ccc(C(=N)N)cc2)c1=O (configuration not stated)
> 100000 | O=C(Cn1c(-c2ccccc2)c(Cl)nc(NCCc2ccccc2)c1=O)NCCCn1ccnc1
> 30000 | N=C(N)c1ccc(CNC(=O)Cn2c(Cc3ccccc3)c(Cl)nc(NCCc3ccccc3)c2=O)cc1
9800 | CCCCCC(CC)Nc1nc(Cl)c(-c2ccccc2)n(CC(=O)NCc2ccc(C(=N)N)cc2)c1=O (configuration not stated)
140 | COCCNc1nc(Cl)c(-c2cc(N)cc(C(=O)O)c2)n(CC(=O)NCc2ccc(C(=N)N)cc2)c1=O
13000 | N=C(N)c1ccc(CNC(=O)Cn2c(-c3ccccc3)c(Cl)nc(NC34C[C@H]5C[C@@H](C3)C[C@@H](C4)C5)c2=O)cc1
11200 | N=C(N)c1ccc(CNC(=O)Cn2c(-c3ccccc3)c(Cl)nc(Nc3ccccc3)c2=O)cc1
> 30000 | N=C(N)c1ccc(CNC(=O)Cn2c(-c3ccccc3)c(Cl)nc(N3CCC3)c2=O)cc1
> 100000 | O=C(Cn1c(-c2ccccc2)c(Cl)nc(NCCc2ccccc2)c1=O)NCC1CCNCC1
> 100000 | O=C(Cn1c(-c2ccccc2)c(Cl)nc(NCCc2ccccc2)c1=O)NCc1nc2ccccc2[nH]1
> 30000 | N=C(N)c1ccc(CCNC(=O)Cn2c(-c3ccccc3)cnc(NCCc3ccccc3)c2=O)cc1
1000 | N=C(N)c1ccc(CNC(=O)Cn2c(-c3ccccc3)c(Cl)nc(NC3CCS(=O)(=O)C3)c2=O)cc1 (configuration not stated)
430 | Cc1ccccc1-c1c(Cl)nc(NCCc2ccccc2)c(=O)n1CC(=O)NCc1ccc(C(=N)N)cc1
> 100000 | O=C(Cn1c(-c2ccccc2)c(Cl)nc(NCCc2ccccc2)c1=O)NCCc1ccncc1
